The source of these data is US10829491B2, “Pyrimido[5,4-B]indolizine or pyrimido[5,4-B]pyrrolizine compound, preparation method and use thereof” (SHANGHAI INSTITUTE OF MATERIA MEDICA, CHINESE ACADEMY OF …, priority 2016, dated 2020).

Where two headings read alike, the source gives them in different places.

Assay [1] has as its system human B lymphoma Ramos cells. As to the kind of experiment: In vitro proliferation inhibition of Ramos cells (MTT). Format: cell-based. The note with it: for IC50: Homo sapiens, Ramos cells, 48 hours, MTT. As to the method:
(§1) Cells were seeded at 10000-15000/well into a 96-well culture plate, different concentrations of a test compound were added to each well (3 replicate-wells for each concentration), and blank control, positive compound control and negative control were provided. 48 hours after the administration of the drugs, […] of MTT (5 mg/ml) was added, and the plate was incubated at 37° C. for 4 h, and then […] of a triad solution (10% SDS, 5% isobutanol, 0.01 M HCl) was added. The resultant was cultured at 37° C. overnight, and the OD value was measured at a wavelength of 570 nm using a wavelength-tunable microplate reader ELISA SPECTRA MAX 190. […] The IC50 value was calculated by fitting the inhibition curve using a four-parameter method. The experiment was repeated 3 times independently.

In assay [2] the test system is human diffuse large B lymphoma TMD8 cells. In words: In vitro proliferation inhibition of TMD8 cells (MTT). The class given is cell-based. Conditions: 48 hours, read-out: IC50 for the inhibition TMD of cells. The method, then:
as §1, with “added.” for “added. The resultant was cultured at 37° C. overnight, and the OD value was measured at a wavelength of 570 nm using a wavelength-tunable microplate reader ELISA SPECTRA MAX 190.”

Assay [3] deals with BTK tyrosine kinase protein (Homo sapiens (Human), UniProt Q06187). As to the kind of experiment: Inhibitory activity against Bruton kinase (BTK) at molecular level (ELISA). Format: biochemical. As to the method:
Poly(Glu, Tyr) 4:1 as a substrate for enzyme catalyzed reaction was diluted with potassium-free PBS (10 mM sodium phosphate buffer, 150 mM NaCl, pH 7.2-7.4) to […] to coat a ELISA plate. The plate was cultured at 37° C. for 12-16 h, washed with 200 μL/well of T-PBS (PBS containing 0.1% of Tween-20) three times, and dried in an oven at 37° C. for 1-2 h. Into the above ELISA plate coated with the substrate, an ATP solution diluted with a reaction buffer (50 mM HEPES, pH 7.4, 50 mM MgCl2, 5 mM MnCl2, 0.2 mM Na3VO4, 1 mM DTT) was first added at 50 μL/well (concentration of 10 μM). Then, a test compound diluted by 1% DMSO to a suitable concentration was added (10 μL/well), and negative control well and positive compound control well were provided separately. Finally, the reaction was initiated by adding BTK tyrosine kinase protein diluted in 40 μL of reaction buffer.
The above reaction system was placed on a shaker (100 rpm) at 37° C. for 1 h, then washed with T-PBS for three times, primary antibody PY99 (Cell Signaling Technology) was added at 100 μL/well, and the reaction was conducted on the shaker at 37° C. for 0.5 h. After the plate was washed with T-PBS, secondary antibody horseradish peroxidase-labeled goat anti-mouse IgG was added at 100 μL/well, and the reaction was conducted on the shaker at 37° C. for 0.5 h. After the plate was washed with T-PBS, 2 mg/mL of OPD developing solution was added at 100 μL/well, and the reaction was conducted in the dark at 25° C. for 1 to 10 minutes. Then the reaction was quenched by adding 2 M H2SO4 at 50 μL/well. The data were read on a wavelength-tunable microplate reader ELISA SPECTRA MAX 190 at a wavelength of 490 nm.
IC50 was calculated by fitting the inhibition curve using a four-parameter method.

[4] abbreviates: BTK kinase ELISA, ATP 10 μM, read-out: IC50.

Chain of BTK tyrosine kinase protein (Q06187 whole entry): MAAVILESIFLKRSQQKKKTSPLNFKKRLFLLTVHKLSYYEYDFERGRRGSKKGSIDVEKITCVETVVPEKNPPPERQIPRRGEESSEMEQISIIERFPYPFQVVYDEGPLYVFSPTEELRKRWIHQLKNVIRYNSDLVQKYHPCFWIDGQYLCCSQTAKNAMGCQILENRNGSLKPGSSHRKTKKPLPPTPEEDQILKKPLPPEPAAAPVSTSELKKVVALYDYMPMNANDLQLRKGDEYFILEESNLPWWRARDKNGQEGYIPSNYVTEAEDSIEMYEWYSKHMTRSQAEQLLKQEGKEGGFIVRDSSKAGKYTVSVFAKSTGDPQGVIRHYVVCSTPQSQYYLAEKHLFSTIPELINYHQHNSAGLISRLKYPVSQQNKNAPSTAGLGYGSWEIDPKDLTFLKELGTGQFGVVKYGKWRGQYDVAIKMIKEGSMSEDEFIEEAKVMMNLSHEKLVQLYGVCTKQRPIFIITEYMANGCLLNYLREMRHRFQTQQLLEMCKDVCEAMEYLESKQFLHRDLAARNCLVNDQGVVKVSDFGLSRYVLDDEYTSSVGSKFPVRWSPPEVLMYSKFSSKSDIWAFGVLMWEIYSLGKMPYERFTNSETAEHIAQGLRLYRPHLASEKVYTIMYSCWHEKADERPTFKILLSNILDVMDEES

In assay [1], `C=CC(=O)NC1CCc2c(-c3ccc(Oc4ccccc4)cc3)c3c(N)ncnc3n2C1` (racemic) [Compound S3, N-(4-amino-5-(4-phenoxyphenyl)-6,7,8,9-tetrahydropyrimido[5,4-b]indolizine-8-yl)acrylamide] displayed an IC50 of 11400 ± 800 nM.
Consider `C=CC(=O)N[C@@H]1CCc2c(-c3ccc(Oc4ccccc4)cc3)c3c(N)ncnc3n2C1` [Compound S1, (R)—N-(4-amino-5-(4-phenoxyphenyl)-6,7,8,9-tetrahydropyrimido[5,4-b]indolizine-8-yl)acrylamide], for which the IC50 in assay [2] was 5.8 nM; in assay [1] it was 94700 ± 45100 nM. For the same compound, in assay [1] (qualitative statement), the “cell activity against human B lymphoma Ramos cells” value is reported as “low cell activity”.
Regarding `CC(C)(C)C=C(C#N)C(=O)N[C@@H]1CCc2c(-c3ccc(Oc4ccccc4)cc3)c3c(N)ncnc3n2C1` [Compound S4, (R)—N-(4-amino-5-(4-phenoxyphenyl)-6,7,8,9-tetrahydropyrimido[5,4-b]indolizine-8-yl)-2-cyano-4,4-dimethylpent-2-enamide], the IC50 in assay [3] (setting [4]) is over 100 nM.
Consider `CN(C)C/C=C/C(=O)N[C@@H]1CCc2c(-c3ccc(Oc4ccccc4)cc3)c3c(N)ncnc3n2C1` [Compound S5, (R,E)-N-(4-amino-5-(4-phenoxyphenyl)-6,7,8,9-tetrahydropyrimido[5,4-b]indolizine-8-yl)-4-(dimethylamino)but-2-enamide], for which the IC50 in assay [3] (setting [4]) is under 1 nM; in assay [1], 6600 ± 2100 nM.
For the compound `C=CC(=O)NCC(=O)N[C@@H]1CCc2c(-c3ccc(Oc4ccccc4)cc3)c3c(N)ncnc3n2C1` [Compound S6, (R)—N-(2-((4-amino-5-(4-phenoxyphenyl)-6,7,8,9-tetrahydropyrimido[5,4-b]indolizine-8-yl)amino)-2-oxoethyl)acrylamide], the IC50 in assay [3] (setting [4]) was 1 to 10 nM; in assay [1], 5500 ± 1000 nM.
For `C=CC(=O)NC(C)C(=O)N[C@@H]1CCc2c(-c3ccc(Oc4ccccc4)cc3)c3c(N)ncnc3n2C1` (stereo partly drawn) [Compound S7, N-(1-(((R)-4-amino-5-(4-phenoxyphenyl)-6,7,8,9-tetrahydropyrimido[5,4-b]indolizine-8-yl)imino)-1-oxoprop-2-yl) acrylamide], in assay [3] (setting [4]), the IC50 lay within 10 to 100 nM.
Same read-out and setting: as for `C=CC(=O)NC1(C(=O)N[C@@H]2CCc3c(-c4ccc(Oc5ccccc5)cc4)c4c(N)ncnc4n3C2)CC1` [Compound S8, (R)-1-acrylamido-N-(4-amino-5-(4-phenoxyphenyl)-6,7,8,9-tetrahydropyrimido[5,4-b]indolizine-8-yl)cyclopropanecarboxamide], the figure is over 100 nM.
On the same count and under the same terms, with `C=CS(=O)(=O)N[C@@H]1CCc2c(-c3ccc(Oc4ccccc4)cc3)c3c(N)ncnc3n2C1` [Compound S9, (R)—N-(4-amino-5-(4-phenoxyphenyl)-6,7,8,9-tetrahydropyrimido[5,4-b]indolizine-8-yl)vinylsulfamide] the figure was 10 to 100 nM.
As for `CC#CC(=O)N[C@@H]1CCc2c(-c3ccc(Oc4ccccc4)cc3)c3c(N)ncnc3n2C1` [Compound S10, (R)—N-(4-amino-5-(4-phenoxyphenyl)-6,7,8,9-tetrahydropyrimido[5,4-b]indolizine-8-yl)But-2-ynylamide], the IC50 is 30 nM in assay [2], 1 to 10 nM in assay [3] and 8720 ± 8580 nM in assay [1].
Regarding `C=CC(=O)N[C@@H]1CCc2c(-c3ccc(Oc4ccc(F)cc4)cc3)c3c(N)ncnc3n2C1` [Compound S11, (R)—N-(4-amino-5-(4-(4-fluorophenoxy)phenyl)-6,7,8,9-tetrahydropyrimido[5,4-b]indolizine-8-yl)acrylamide], the IC50 in assay [3] (setting [4]) was under 1 nM.
For the compound `C=CC(=O)N[C@@H]1CCc2c(-c3ccc(Oc4ccc(C(F)(F)F)cc4)cc3)c3c(N)ncnc3n2C1` [Compound S12, (R)—N-(4-amino-5-(4-(4-(trifluoromethyl)phenoxy)phenyl)-6,7,8,9-tetrahydropyrimido[5,4-b]indolizine-8-yl)acrylamide], in assay [3] (setting [4]), the IC50 is under 1 nM.
For `C=CC(=O)N[C@@H]1CCc2c(-c3ccc(C(=O)Nc4ccccn4)cc3)c3c(N)ncnc3n2C1` [Compound S13, (R)-4-(8-acrylamido-4-amino-6,7,8,9-tetrahydropyrimido[5,4-b]indolizine-5-yl)-N-(pyridin-2-yl)benzamide], the IC50 in assay [3] (setting [4]) is 1 to 10 nM.
For `CC#CC(=O)N[C@@H]1CCc2c(-c3ccc(C(=O)Nc4ccccn4)cc3)c3c(N)ncnc3n2C1` [Compound S14, (R)-4-(4-amino-8-(but-2-ynylamide)-6,7,8,9-tetrahydropyrimido[5,4-b]indolizine-5-yl)-N-(pyridin-2-yl)benzamide], the IC50 in assay [3] (setting [4]) lay within 1 to 10 nM.
Still for that read-out and setting: as for `C=CC(=O)N[C@@H]1CCc2c(-c3ccc(C(=O)Nc4ccc(F)cn4)cc3)c3c(N)ncnc3n2C1` [Compound S15, (R)-4-(8-acrylamido-4-amino-6,7,8,9-tetrahydropyrimido[5,4-b]indolizine-5-yl)-N-(5-fluoropyridin-2-yl)benzamide], the figure is 1 to 10 nM.
The same measure, in the same setting: as for `C=CC(=O)N[C@@H]1CCc2c(-c3ccc(C(=O)Nc4cc(C(F)(F)F)ccn4)cc3)c3c(N)ncnc3n2C1` [Compound S16, (R)-4-(8-acrylamido-4-amino-6,7,8,9-tetrahydropyrimido[5,4-b]indolizine-5-yl)-N-(4-(trifluoromethyl)pyridin-2-yl)benzamide], the figure is 1 to 10 nM; as for `C=CC(=O)N[C@@H]1CCc2c(-c3ccc(C(=O)N[C@@H](COC)c4ccccc4)cc3)c3c(N)ncnc3n2C1` [Compound S17, 4-((R)-8-acrylamido-4-amino-6,7,8,9-tetrahydropyrimido[5,4-b]indolizine-5-yl)-N—((R)-2-methoxy-1-phenylethyl)benzamide], 1 to 10 nM; as for `C=CC(=O)N[C@H]1Cn2c(c(-c3ccc(Oc4ccccc4)cc3)c3c(N)ncnc32)C1=C` [Compound S18, (R)—N-(4-amino-6-methylidene-5-(4-phenoxyphenyl)-7,8-dihydro-6H-pyrimido[5,4-b]pyrrolizin-7-yl)acrylamide], 1 to 10 nM.
As to `C=C1c2c(-c3ccc(Oc4ccccc4)cc3)c3c(N)ncnc3n2C[C@@H]1NC(=O)C#CC` [Compound S19, (R)—N-(4-amino-6-methylidene-5-(4-phenoxyphenyl)-7,8-dihydro-6H-pyrimido[5,4-b]pyrrolizin-7-yl)but-2-ynylamide], the results for the IC50 in assay [3] and in assay [1] were under 1 nM and 16900 ± 7900 nM, respectively.
Take `C=CC(=O)N[C@H]1Cn2c(c(-c3ccc(C(=O)Nc4ccccn4)cc3)c3c(N)ncnc32)C1=C` [Compound S20, (R)-4-(7-acrylamido-4-amino-6-methylidene-7,8-dihydro-6H-pyrimido[5,4-b]pyrrolizin-5-yl)-N-(pyridin-2-yl)benzamide]: the half-inhibitory concentration (IC50) in assay [3] (setting [4]) lay in the range of 1 to 10 nM.
Take `C=CC(=O)N[C@H]1Cn2c(c(-c3ccc(Oc4ccccc4)cc3)c3c(N)ncnc32)C1C` (stereo partly drawn) [Compound S21, N-((7R)-4-amino-6-methyl-5-(4-phenoxyphenyl)-7,8-dihydro-6H-pyrimido[5,4-b]pyrrolizin-7-yl)acrylamide]: the IC50 in assay [3] (setting [4]) was 1 to 10 nM.
On the same count and under the same terms, with `C=CC(=O)N[C@H]1Cn2c(c(-c3ccc(C(=O)Nc4ccccn4)cc3)c3c(N)ncnc32)C1C` (stereo partly drawn) [Compound S22, 4-((7R)-7-acrylamido-4-amino-6-methyl-7,8-dihydro-6H-pyrimido[5,4-b]pyrrolizin-5-yl)-N-(pyridin-2-yl)benzamide] the figure was 1 to 10 nM.
In the case of `C=CC(=O)N1CCC[C@@H](n2nc(-c3ccc(Oc4ccccc4)cc3)c3c(N)ncnc32)C1` [Ibrutinib, reference compound], the IC50 was 4.5 nM in assay [2] and about 8530 nM in assay [1].

A word on the IC50: it is the concentration that inhibits the measured activity by half.
